This is an account of results in US12459899B2, “Isoquinolinone derivatives, method for preparing the same, and pharmaceutical composition for preventing or treating poly(ADP-ribose) polymerase-1-related diseases, comprising the same as active ingredient” (DIGMBIO. INC., priority 2019, dated 2025).

The structures appear in SMILES notation.

PARP-1 (poly[ADP-ribose] polymerase 1) enzyme, sequence (P09874 whole entry): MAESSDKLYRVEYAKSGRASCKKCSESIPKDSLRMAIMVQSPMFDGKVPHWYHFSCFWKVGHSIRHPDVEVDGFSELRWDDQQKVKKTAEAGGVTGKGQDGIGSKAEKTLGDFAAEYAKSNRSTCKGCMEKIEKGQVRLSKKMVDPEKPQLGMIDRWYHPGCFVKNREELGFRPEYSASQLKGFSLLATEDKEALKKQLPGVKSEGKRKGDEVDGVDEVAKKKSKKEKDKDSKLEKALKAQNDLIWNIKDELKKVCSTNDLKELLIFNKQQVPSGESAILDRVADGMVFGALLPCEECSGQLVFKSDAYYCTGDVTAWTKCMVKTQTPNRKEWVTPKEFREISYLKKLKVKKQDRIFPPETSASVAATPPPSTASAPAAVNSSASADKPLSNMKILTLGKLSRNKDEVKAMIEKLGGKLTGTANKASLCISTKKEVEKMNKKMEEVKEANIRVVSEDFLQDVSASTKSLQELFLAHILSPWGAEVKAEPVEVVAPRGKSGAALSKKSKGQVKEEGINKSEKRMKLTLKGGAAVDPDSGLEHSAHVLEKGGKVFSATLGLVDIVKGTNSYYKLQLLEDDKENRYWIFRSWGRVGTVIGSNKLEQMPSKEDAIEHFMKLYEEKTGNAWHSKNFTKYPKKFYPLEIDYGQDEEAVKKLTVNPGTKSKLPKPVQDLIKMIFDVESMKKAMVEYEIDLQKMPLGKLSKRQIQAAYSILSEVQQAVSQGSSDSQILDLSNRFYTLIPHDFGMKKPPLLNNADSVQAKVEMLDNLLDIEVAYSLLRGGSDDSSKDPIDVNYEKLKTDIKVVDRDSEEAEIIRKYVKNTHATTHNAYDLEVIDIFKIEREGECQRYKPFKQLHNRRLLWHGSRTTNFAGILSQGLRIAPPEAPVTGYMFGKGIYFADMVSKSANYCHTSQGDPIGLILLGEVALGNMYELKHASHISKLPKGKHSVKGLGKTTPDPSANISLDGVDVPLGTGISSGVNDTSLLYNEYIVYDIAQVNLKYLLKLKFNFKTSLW

One assay concerns the target PARP-1 (poly[ADP-ribose] polymerase 1) enzyme (Homo sapiens (Human), UniProt P09874). Put plainly: PARP-1 (poly[ADP-ribose] polymerase 1) enzyme inhibitory ability, Trevigen assay kit. In kind it is biochemical. As to conditions: 1 nM compound; read-out: PAR P-1 Inhibitory ability at 1 nM. In a few lines: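 Human PARP-1 activity was measured with a Trevigen assay kit in histone-coated 96-well plates rehydrated with 50 μL of 1×PARP buffer for 30 minutes. Enzyme (0.5 unit/well) and compound were preincubated 10 minutes at room temperature, then 25 μL of 1×PARP cocktail with biotinylated NAD and activated DNA was added for 1 hour.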
For the compound `O=C(CCc1cc2cccc(F)c2c(=O)[nH]1)N1CC=C(c2ccc(F)cn2)CC1` [Example 86], the inhibition at 0.001 µM is less than 50%.

As for `N#Cc1cc(C2=CCN(C(=O)CCc3cc4cccc(F)c4c(=O)[nH]3)CC2)ccc1F` [Example 87, 2-fluoro-5-(1-(3-(8-fluoro-1-oxo-1,2-dihydroisoquinolin-3-yl)propanoyl)-1,2,3,6-tetrahydropyridin-4-yl)benzonitrile], the inhibition at 0.001 µM is less than 50%. As for `O=C(CCc1cc2cccc(F)c2c(=O)[nH]1)N1CCN(c2cccc(F)c2)CC1` [Example 89, 8-fluoro-3-(3-(4-(3-fluorophenyl)piperazin-1-yl)-3-oxopropyl)isoquinolin-1(2H)-one], the inhibition at 0.001 µM is less than 50%. Still for that read-out and setting: in the case of `O=C(CCc1cc2cccc(F)c2c(=O)[nH]1)N1CC=C(c2ccnc(F)c2)CC1` [Example 92, 8-fluoro-3-(3-(2′-fluoro-3,6-dihydro-[4,4′-bipyridine]-1(2H)-yl)-3-oxopropyl)isoquinolin-1(2H)-one] it was less than 50%.

On to `N#Cc1ccc(C2=CCN(C(=O)CCc3cc4cccc(F)c4c(=O)[nH]3)CC2)cn1` [Example 93, 1′-(3-(8-fluoro-1-oxo-1,2-dihydroisoquinolin-3-yl)propanoyl)-1′,2′,3′,6′-tetrahydro-[3,4′-bipyridine]-6-carbonitrile], for which the inhibition at 0.001 µM was less than 50%. Same read-out and setting: in the case of `N#Cc1ccc(N2CCN(C(=O)CCc3cc4ccc(F)cc4c(=O)[nH]3)CC2)cc1` [Example 94, 4-(4-(3-(7-fluoro-1-oxo-1,2-dihydroisoquinolin-3-yl)propanoyl)piperazin-1-yl)benzonitrile] it was less than 50%; in that of `N#Cc1ccc(C2=CCN(C(=O)CCc3cc4ccc(F)cc4c(=O)[nH]3)CC2)cc1` [Example 95, 4-(1-(3-(7-fluoro-1-oxo-1,2-dihydroisoquinolin-3-yl)propanoyl)-1,2,3,6-tetrahydropyridin-4-yl)benzonitrile], less than 50%. Turning to `N#Cc1ccc(C2=CCN(C(=O)CCc3cc4ccc(F)cc4c(=O)[nH]3)CC2)nc1` [Example 96, 1′-(3-(7-fluoro-1-oxo-1,2-dihydroisoquinolin-3-yl)propanoyl)-1′,2′,3′,6′-tetrahydro-[2,4′-bipyridine]-5-carbonitrile], the inhibition at 0.001 µM is less than 50%. For the compound `N#Cc1ccc(N2CCN(C(=O)CCc3cc4ccc(F)cc4c(=O)[nH]3)CC2)cn1` [Example 97, 5-(4-(3-(7-fluoro-1-oxo-1,2-dihydroisoquinolin-3-yl)propanoyl)piperazin-1-yl)picolinonitrile], the inhibition at 0.001 µM was less than 50%. Same read-out and setting: the value for `N#Cc1ccccc1N1CCN(C(=O)CCc2cc3ccc(F)cc3c(=O)[nH]2)CC1` [Example 98, 2-(4-(3-(7-fluoro-1-oxo-1,2-dihydroisoquinolin-3-yl)propanoyl)piperazin-1-yl)benzonitrile] was less than 50%; that for `N#Cc1ccc(N2CCN(C(=O)CCc3cc4ccc(F)cc4c(=O)[nH]3)CC2)nc1` [Example 99, 6-(4-(3-(7-fluoro-1-oxo-1,2-dihydroisoquinolin-3-yl)propanoyl)piperazin-1-yl)nicotinonitrile] was less than 50%; that for `N#Cc1ccc(N2CCN(C(=O)CCc3cc4ccc(F)cc4c(=O)[nH]3)CC2)c(F)c1` [Example 100, 3-fluoro-4-(4-(3-(7-fluoro-1-oxo-1,2-dihydroisoquinolin-3-yl)propanoyl)piperazin-1-yl)benzonitrile] was less than 50%. On the same count and under the same terms, in the case of `N#Cc1ccc(N2CCN(C(=O)CCc3cc4ccc(F)cc4c(=O)[nH]3)CC2)cc1F` [Example 101, 2-fluoro-4-(4-(3-(7-fluoro-1-oxo-1,2-dihydroisoquinolin-3-yl)propanoyl)piperazin-1-yl)benzonitrile] it was less than 50%. Still for that read-out and setting: in the case of `O=C(CCc1cc2ccc(F)cc2c(=O)[nH]1)N1CC=C(c2ccc(F)nc2)CC1` [Example 102] it was less than 50%; in that of `O=C(CCc1cc2ccc(F)cc2c(=O)[nH]1)N1CC=C(c2ccc(F)cn2)CC1` [Example 103, 7-fluoro-3-(3-(5-fluoro-3′,6′-dihydro-[2,4′-bipyridine]-1′(2′H)-yl)-3-oxopropyl)isoquinolin-1(2H)-one], less than 50%; in that of `O=C(CCc1cc2ccc(F)cc2c(=O)[nH]1)N1CC=C(c2ccc(F)cc2)CC1` [Example 104, 7-fluoro-3-(3-(4-(4-fluorophenyl)-3,6-dihydropyridin-1(2H)-yl)-3-oxopropyl)isoquinolin-1(2H)-one], less than 50%. For the compound `O=C(CCc1cc2ccc(F)cc2c(=O)[nH]1)N1CCN(c2ccc(Cl)cc2)CC1` [Example 105, 3-(3-(4-(4-chlorophenyl)piperazin-1-yl)-3-oxopropyl)-7-fluoroisoquinolin-1(2H)-one], the inhibition at 0.001 µM is less than 50%. On the same count and under the same terms, the value for `O=C(CCc1cc2ccc(F)cc2c(=O)[nH]1)N1CCN(c2ccc(F)cc2F)CC1` [Example 106, 3-(3-(4-(2,4-difluorophenyl)piperazin-1-yl)-3-oxopropyl)-7-fluoroisoquinolin-1(2H)-one] was less than 50%. In the case of `N#Cc1ccc(F)c(N2CCN(C(=O)CCc3cc4ccc(F)cc4c(=O)[nH]3)CC2)c1` [Example 107, 4-fluoro-3-(4-(3-(7-fluoro-1-oxo-1,2-dihydroisoquinolin-3-yl)propanoyl)piperazin-1-yl)benzonitrile], the inhibition at 0.001 µM is less than 50%. Take `N#Cc1ccc(F)cc1N1CCN(C(=O)CCc2cc3ccc(F)cc3c(=O)[nH]2)CC1` [Example 108, 4-fluoro-2-(4-(3-(7-fluoro-1-oxo-1,2-dihydroisoquinolin-3-yl)propanoyl)piperazin-1-yl)benzonitrile]: the inhibition at 0.001 µM was less than 50%. Same read-out and setting: in the case of `N#Cc1cc(N2CCN(C(=O)CCc3cc4ccc(F)cc4c(=O)[nH]3)CC2)ccc1F` [Example 109, 2-fluoro-5-(4-(3-(7-fluoro-1-oxo-1,2-dihydroisoquinolin-3-yl)propanoyl)piperazin-1-yl)benzonitrile] it was less than 50%; in that of `N#Cc1cc(F)ccc1N1CCN(C(=O)CCc2cc3ccc(F)cc3c(=O)[nH]2)CC1` [Example 110, 5-fluoro-2-(4-(3-(7-fluoro-1-oxo-1,2-dihydroisoquinolin-3-yl)propanoyl)piperazin-1-yl)benzonitrile], less than 50%; in that of `N#Cc1ccc(F)c(C2=CCN(C(=O)CCc3cc4ccc(F)cc4c(=O)[nH]3)CC2)c1` [Example 111, 4-fluoro-3-(1-(3-(7-fluoro-1-oxo-1,2-dihydroisoquinolin-3-yl)propanoyl)-1,2,3,6-tetrahydropyridin-4-yl)benzonitrile], less than 50%.

Regarding `N#Cc1cc(F)ccc1C1=CCN(C(=O)CCc2cc3ccc(F)cc3c(=O)[nH]2)CC1` [Example 112, 5-fluoro-2-(1-(3-(7-fluoro-1-oxo-1,2-dihydroisoquinolin-3-yl)propanoyl)-1,2,3,6-tetrahydropyridin-4-yl)benzonitrile], the inhibition at 0.001 µM is less than 50%. On the same count and under the same terms, the value for `O=C(CCc1cc2ccc(F)cc2c(=O)[nH]1)N1CC=C(c2ccc(F)cc2F)CC1` [Example 113, 3-(3-(4-(2,4-difluorophenyl)-3,6-dihydropyridin-1(2H)-yl)-3-oxopropyl)-7-fluoroisoquinolin-1(2H)-one] was less than 50%. Same read-out and setting: in the case of `N#Cc1cc(F)cc(C2=CCN(C(=O)CCc3cc4ccc(F)cc4c(=O)[nH]3)CC2)c1` [Example 114, 3-fluoro-5-(1-(3-(7-fluoro-1-oxo-1,2-dihydroisoquinolin-3-yl)propanoyl)-1,2,3,6-tetrahydropyridin-4-yl)benzonitrile] it was less than 50%. Same read-out and setting: the value for `O=C(CCc1cc2ccc(F)cc2c(=O)[nH]1)N1CC=C(c2cccc(F)c2)CC1` [Example 115, 7-fluoro-3-(3-(4-(3-fluorophenyl)-3,6-dihydropyridin-1(2H)-yl)-3-oxopropyl)isoquinolin-1(2H)-one] was less than 50%; that for `O=C(CCc1cc2ccc(F)cc2c(=O)[nH]1)N1CC[C@H](c2ccc(F)cc2)C1` [Example 116, (R)-7-fluoro-3-(3-(3-(4-fluorophenyl)pyrrolidin-1-yl)-3-oxopropyl)isoquinolin-1(2H)-one] was less than 50%. Regarding `O=C(CCc1cc2ccc(F)cc2c(=O)[nH]1)N1CC[C@@H](c2ccc(F)cc2)C1` [Example 117, (S)-7-fluoro-3-(3-(3-(4-fluorophenyl)pyrrolidin-1-yl)-3-oxopropyl)isoquinolin-1(2H)-one], the inhibition at 0.001 µM is less than 50%.

Consider `O=C(CCc1cc2ccc(F)cc2c(=O)[nH]1)N1CCN(c2ccc(C(F)(F)F)cc2)CC1` [Example 118, 7-fluoro-3-(3-oxo-3-(4-(4-(trifluoromethyl)phenyl)piperazin-1-yl)propyl)isoquinolin-1(2H)-one], for which the inhibition at 0.001 µM is less than 50%. The same measure, in the same setting: in the case of `N#Cc1cc(F)cc(N2CCN(C(=O)CCc3cc4ccc(F)cc4c(=O)[nH]3)CC2)c1` [Example 119, 3-fluoro-5-(4-(3-(7-fluoro-1-oxo-1,2-dihydroisoquinolin-3-yl)propanoyl)piperazin-1-yl)benzonitrile] it was less than 50%; in that of `O=C(CCc1cc2ccc(F)cc2c(=O)[nH]1)N1CCN(c2cccc(F)c2)CC1` [Example 120, 7-fluoro-3-(3-(4-(3-fluorophenyl)piperazin-1-yl)-3-oxopropyl)isoquinolin-1(2H)-one], less than 50%. Same read-out and setting: the value for `O=C(CCc1cc2ccc(F)cc2c(=O)[nH]1)N1CC=C(c2ccnc(F)c2)CC1` [Example 121, 7-fluoro-3-(3-(2′-fluoro-3,6-dihydro-[4,4′-bipyridine]-1(2H)-yl)-3-oxopropyl)isoquinolin-1(2H)-one] was less than 50%; that for `Cc1ccc(F)c2c(=O)[nH]c(CCC(=O)N3CCN(c4ccc(C#N)cc4)CC3)cc12` [Example 122, 4-(4-(3-(8-fluoro-5-methyl-1-oxo-1,2-dihydroisoquinolin-3-yl)propanoyl)piperazin-1-yl)benzonitrile] was less than 50%.

Still in this assay, the particulars now being: PARP-1 enzyme activity.
As for `N#Cc1ccc(N2CCN(C(=O)CCc3cc4ccc(F)cc4c(=O)[nH]3)CC2)nc1` [Example 99, 6-(4-(3-(7-fluoro-1-oxo-1,2-dihydroisoquinolin-3-yl)propanoyl)piperazin-1-yl)nicotinonitrile], the IC50 (as a rule, the concentration at which inhibition is half-maximal) was determined as 1050 pM. On the same count and under the same terms, in the case of `O=C(CCc1cc2ccc(F)cc2c(=O)[nH]1)N1CC=C(c2ccc(F)cn2)CC1` [Example 103, 7-fluoro-3-(3-(5-fluoro-3′,6′-dihydro-[2,4′-bipyridine]-1′(2′H)-yl)-3-oxopropyl)isoquinolin-1(2H)-one] it was 910 pM.
